This passage reports inhibition results from patent US8138197B2, “Spirochromanon derivatives” (MSD K.K., priority 2007, dated 2012).

Molecules are shown by their SMILES.

One assay has as its target human ACC1 (Homo sapiens, UniProt Q13085). The assay is described as follows: Acetyl CoA carboxylase (ACC) activity inhibition test, human ACC1. As to conditions: 1 μmol/liter compound; [14C] bicarbonate fixation, 37° C., 40 minutes; read-out: Inhibition (%) by 1 μmol/liter Chemical, human ACC1. The format is biochemical. Here is the method: (§1) A. Pharmacological Test Example (Acetyl CoA Carboxylase (ACC) Activity Inhibition Test)
(§2) A test compound is dissolved in dimethyl sulfoxide (DMSO) to a concentration of 10 mM and then diluted with DMSO to give a 100-fold concentrated solution of the compound compared with target assay concentration. The ACC enzyme activity inhibition test is carried out according to a modification of Thampy & Wakil's method (J. Biol. Chem., Vol. 260, pp. 6318-6323 (1985)). Concretely, 0.8 μl of the diluted test compound is added to each well of 96-well assay plate (Perkin Elmer Opti Plate), then 40 μl of a substrate solution (50 mM Hepes sodium (pH 7.5), 2 mM DTT, 10 mM ATP, 500 μM acetyl CoA, 0.17 mM NaH[^14C]O3 (58 mCi/mmol, by Amersham), 8 mM NaHCO3) is added to each well, and 40 μL of an enzyme solution ([…] human ACC1 or human ACC2, 50 mM Hepes sodium (pH 7.5), 2 mM DTT, 40 mM MgCl2, 40 mM tripotassium citrate 1 mg/ml fetal bovine serum albumin) is added thereto. Then, the upper side of the plate is sealed up, and the plate is incubated with gently stirring at 37° C. for 40 minutes. Next, 20 μl of 1 N HCl is added to each well to stop the enzyme reaction, and the assay plate is stirred overnight to remove the unreacted NaH[^14C]O3. Next, 100 μl of a scintillator (Perkin Elmer's Microscinti 40) is added to each well and the plate is stirred, then the radioactivity of the fixed [^14C] is counted using a microplate scintillation counter (Perkin Elmer's Topcount), the radioactivity of which represents the enzyme activity in each well. The human ACC1 and human ACC2 enzyme-inhibition activities of the test compounds are calculated, based on the radioactivity of the well added by DMSO without test compound as a control.

A further assay has as its target human ACC2 (Homo sapiens, UniProt O00763). The assay is described as follows: Acetyl CoA carboxylase (ACC) activity inhibition test, human ACC2. The format is biochemical. To be noted: 1 μmol/liter compound; [14C] bicarbonate fixation, 37° C., 40 minutes; read-out: Inhibition (%) by 1 μmol/liter Chemical, human ACC2. The method, then: as §1, §2

Sequence of human ACC2 (O00763 whole entry): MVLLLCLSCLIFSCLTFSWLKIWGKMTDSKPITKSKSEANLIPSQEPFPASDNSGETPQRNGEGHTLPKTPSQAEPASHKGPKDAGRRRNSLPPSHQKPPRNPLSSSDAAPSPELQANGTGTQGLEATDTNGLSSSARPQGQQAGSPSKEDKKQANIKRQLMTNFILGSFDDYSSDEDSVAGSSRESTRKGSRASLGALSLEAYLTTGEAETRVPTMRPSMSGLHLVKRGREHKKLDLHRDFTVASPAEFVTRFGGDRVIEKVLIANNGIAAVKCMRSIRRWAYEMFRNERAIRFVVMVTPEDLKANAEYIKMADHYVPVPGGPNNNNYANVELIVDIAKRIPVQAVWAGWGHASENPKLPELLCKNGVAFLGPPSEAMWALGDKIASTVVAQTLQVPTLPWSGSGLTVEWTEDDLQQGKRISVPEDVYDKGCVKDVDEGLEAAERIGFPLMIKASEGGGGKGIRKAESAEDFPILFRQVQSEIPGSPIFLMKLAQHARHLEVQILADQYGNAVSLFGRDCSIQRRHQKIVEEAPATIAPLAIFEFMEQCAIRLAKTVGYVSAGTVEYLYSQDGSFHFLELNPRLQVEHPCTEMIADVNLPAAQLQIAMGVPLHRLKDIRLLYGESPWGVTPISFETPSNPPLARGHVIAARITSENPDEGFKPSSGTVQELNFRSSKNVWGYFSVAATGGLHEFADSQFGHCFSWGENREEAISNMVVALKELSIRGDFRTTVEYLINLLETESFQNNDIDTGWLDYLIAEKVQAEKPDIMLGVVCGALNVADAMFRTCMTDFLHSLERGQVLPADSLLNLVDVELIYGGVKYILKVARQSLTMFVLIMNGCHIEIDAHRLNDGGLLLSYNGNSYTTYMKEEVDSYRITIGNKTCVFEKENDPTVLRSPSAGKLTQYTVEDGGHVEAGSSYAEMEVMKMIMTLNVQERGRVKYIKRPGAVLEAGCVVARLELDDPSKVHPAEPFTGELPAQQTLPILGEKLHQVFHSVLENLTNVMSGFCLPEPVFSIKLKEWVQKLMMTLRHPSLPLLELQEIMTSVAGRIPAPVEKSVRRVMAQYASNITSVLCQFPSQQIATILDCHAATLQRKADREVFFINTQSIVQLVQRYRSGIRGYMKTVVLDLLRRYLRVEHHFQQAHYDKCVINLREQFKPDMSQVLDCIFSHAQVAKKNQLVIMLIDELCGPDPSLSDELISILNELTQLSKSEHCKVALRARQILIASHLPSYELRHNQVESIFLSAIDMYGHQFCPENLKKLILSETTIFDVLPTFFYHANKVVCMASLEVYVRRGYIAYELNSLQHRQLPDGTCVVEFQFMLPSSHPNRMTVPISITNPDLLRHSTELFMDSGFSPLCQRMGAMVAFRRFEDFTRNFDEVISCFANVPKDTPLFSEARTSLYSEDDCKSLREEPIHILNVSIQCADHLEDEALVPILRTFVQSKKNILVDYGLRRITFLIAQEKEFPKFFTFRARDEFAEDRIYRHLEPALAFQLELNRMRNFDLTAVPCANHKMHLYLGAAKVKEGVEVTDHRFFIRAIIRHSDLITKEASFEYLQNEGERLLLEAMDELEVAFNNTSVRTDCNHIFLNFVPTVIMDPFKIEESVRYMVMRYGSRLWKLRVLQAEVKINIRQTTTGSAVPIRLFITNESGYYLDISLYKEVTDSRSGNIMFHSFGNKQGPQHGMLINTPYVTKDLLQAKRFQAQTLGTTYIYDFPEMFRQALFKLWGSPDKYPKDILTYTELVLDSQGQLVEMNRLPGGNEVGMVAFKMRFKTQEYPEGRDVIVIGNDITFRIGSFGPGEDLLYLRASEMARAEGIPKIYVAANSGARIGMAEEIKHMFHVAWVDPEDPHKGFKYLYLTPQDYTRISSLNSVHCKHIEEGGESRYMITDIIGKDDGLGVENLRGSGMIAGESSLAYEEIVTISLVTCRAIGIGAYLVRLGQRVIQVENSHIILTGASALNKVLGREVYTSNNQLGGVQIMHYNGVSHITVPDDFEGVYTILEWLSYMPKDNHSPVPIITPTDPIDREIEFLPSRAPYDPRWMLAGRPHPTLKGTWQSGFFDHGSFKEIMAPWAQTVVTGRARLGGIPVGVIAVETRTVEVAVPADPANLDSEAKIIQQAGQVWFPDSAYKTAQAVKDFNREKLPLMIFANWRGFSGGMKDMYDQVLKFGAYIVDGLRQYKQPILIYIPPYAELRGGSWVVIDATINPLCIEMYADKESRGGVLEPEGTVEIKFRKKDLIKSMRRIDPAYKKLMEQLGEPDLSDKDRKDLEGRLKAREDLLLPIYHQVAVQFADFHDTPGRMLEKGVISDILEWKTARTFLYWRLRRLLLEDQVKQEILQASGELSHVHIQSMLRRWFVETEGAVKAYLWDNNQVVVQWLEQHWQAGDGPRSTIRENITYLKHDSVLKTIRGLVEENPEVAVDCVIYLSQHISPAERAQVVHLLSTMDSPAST

As for `CCOc1cc(C(=O)N2CCC3(CC2)CC(=O)c2cc(-c4cnn(C)c4)ccc2O3)cc(OC)c1-c1cnn(C)c1` [Example 79, 1′-[3-Ethoxy-5-methoxy-4-(1-methyl-1H-pyrazol-4-yl)benzoyl]-6-(1-methyl-1H-pyrazol-4-yl)spiro[chroman-2,4′-piperidin]4-one], the inhibition at 1 µM on human ACC1 and at human ACC2 was 99% throughout.

As to `CCOc1cc(C(=O)N2CCC3(CC2)CC(=O)c2cc(-c4nnn[nH]4)ccc2O3)cc(OCC)c1-c1cnn(C)c1` [Example 12, 1′-{[3,5-Diethoxy-4-(1-methyl-1H-pyrazol-4-yl)phenyl]carbonyl}-6-(tetrazol-5-yl)spiro[chroman-2,4′-piperidin]-4-one], the inhibition at 1 µM on human ACC1 is 100%; on human ACC2, 99%.

With `Cc1nn(-c2ccccn2)c2sc(C(=O)N3CCC4(CC3)CC(=O)c3cc(-c5nnn[nH]5)ccc3O4)cc12` [Example 51, 1′-[(3-Methyl-1-pyridin-2-yl-1H-thieno[2,3-c]pyrazol-5-yl)carbonyl]-6-(tetrazol-5-yl)spiro[chroman-2,4′-piperidin]-4-one], the inhibition at 1 µM at human ACC1 amounted to 98%; at human ACC2, 89%.

`CCOc1cc(C(=O)N2CCC3(CC2)CC(=O)c2cc(-c4nnn[nH]4)ccc2O3)cc(OC)c1-c1cnn(C)c1` [Example 29, 1′-{[3-Ethoxy-5-methoxy-4-(1-methyl-1H-pyrazol-4-yl)phenyl]carbonyl}-6-(tetrazol-5-yl)spiro[chroman-2,4′-piperidin]-4-one]: the inhibition at 1 µM on human ACC1 and on human ACC2 was 99% in each case.

For the compound `CCOc1cc(C(=O)N2CCC3(CC2)CC(=O)c2cc(-c4ccc(C(=O)O)cn4)ccc2O3)cc(OCC)c1-c1cnn(C)c1` [Example 71, Sodium 6-{1′-[3,5-diethoxy-4-(1-methyl-1H-pyrazol-4-yl)benzoyl]-4-oxospiro[chroman-2,4′-piperidin]-6-yl}nicotinate], the inhibition at 1 µM on human ACC1 and at human ACC2 was 99% in each case.

Consider `CCOc1cc(C(=O)N2CCC3(CC2)CC(=O)c2cc(-c4ccnc(C(=O)O)c4)ccc2O3)cc(OCC)c1-c1cnn(C)c1` [Example 37, 4-(1′-{[3,5-Diethoxy-4-(1-methyl-1H-pyrazol-4-yl)phenyl]carbonyl}-4-oxospiro[chroman-2,4′-piperidin]-6-yl)pyridine-2-carboxylic acid], for which the inhibition at 1 µM on human ACC1 came to 100%; at human ACC2, 99%.

In the case of `COc1cc(C(=O)N2CCC3(CC2)CC(=O)c2cc(-c4ccc(C(N)=O)cn4)ccc2O3)cc(OC)c1-c1cnn(C)c1` [Example 68, 6-{1′-[3,5-dimethoxy-4-(1-methyl-1H-pyrazol-4-yl)benzoyl]-4-oxospiro[chroman-2,4′-piperidin]-6-yl}nicotinamide], the inhibition at 1 µM at human ACC1 and at human ACC2 was 99% each time.

`CCOc1cc(C(=O)N2CCC3(CC2)CC(=O)c2cc(-c4cncc(C(=O)O)c4)ccc2O3)cc(OCC)c1-c1cnn(C)c1` [Example 25, 5-(1′-{[3,5-Diethoxy-4-(1-methyl-1H-pyrazol-4-yl)phenyl]carbonyl}-4-oxospiro[chroman-2,4′-piperidin]-6-yl)pyridine-3-carboxylic acid]: the inhibition at 1 µM at human ACC1 was 100%; at human ACC2, 99%.

In the case of `COc1cc(C(=O)N2CCC3(CC2)CC(=O)c2cc(-c4nnn[nH]4)ccc2O3)cc(OC)c1-c1ccccc1` [Example 5], the results for the inhibition at 1 µM on human ACC1 and on human ACC2 were 94% and 97%, respectively.

For `CCOc1cc(C(=O)N2CCC3(CC2)CC(=O)c2cc(-c4nnn(COC(=O)C(C)(C)C)n4)ccc2O3)cc(OC)c1-c1cnn(C)c1` [Example 63, (5-{1′-[3-ethoxy-5-methoxy-4-(1-methyl-1H-pyrazol-4-yl)benzoyl]-4-oxospiro[chroman-2,4′-piperidin]-6-yl}-2H-tetrazol-2-yl)methylpivalate], the figures for the inhibition at 1 µM at human ACC1 and at human ACC2 were 93% and 97%, respectively.

In the case of `CCOc1cc(C(=O)N2CCC3(CC2)CC(=O)c2cc(-c4ccc(C(N)=O)cn4)ccc2O3)cc(OC)c1-c1cnn(C)c1` [Example 77, 6-{1′-[3-ethoxy-5-methoxy-4-(1-methyl-1H-pyrazol-4-yl)benzoyl]-4-oxospiro[chroman-2,4′-piperidin]-6-yl}nicotinamide], the inhibition at 1 µM at human ACC1 and at human ACC2 was 99% in each case.

Take `Cn1cc(-c2ccc3c(c2)C(=O)CC2(CCN(C(=O)c4cc(-c5nnn[nH]5)c5ccn(C6CC6)c5c4)CC2)O3)cn1` [Example 42, 1′-{[1-Cyclopropyl-4-(tetrazol-5-yl)-1H-indol-6-yl]carbonyl}-6-(1-methyl-1H-pyrazol-4-yl)spiro[chroman-2,4′-piperidin]-4-one]: the results for the inhibition at 1 µM on human ACC1 and on human ACC2 were 98% and 99%, respectively.

On to `Cn1nc(-c2ccccc2)c2ccc(C(=O)N3CCC4(CC3)CC(=O)c3cc(-c5nnn[nH]5)ccc3O4)cc21` [Example 56, 1′-[(1-Methyl-3-phenyl-1H-indazol-6-yl)carbonyl]-6-(tetrazol-5-yl)spiro[chroman-2,4′-piperidin]-4-one], for which the values for the inhibition at 1 µM on human ACC1 and at human ACC2 were 99% and 98%, respectively.
